# Results taken from ChEMBL document CHEMBL1201862, “PubChem BioAssay data set” (2004).
# The source made the active and inactive calls. Rule as the data show it, for most assays here: actives have a measured EC50 and inactives only a lower limit.
# Experiments:
# [1] = molecular target: T1, Heat shock factor protein 1 (Mus musculus, UniProt P38532); test: decrease of HSF1-responsive luciferase luminescence – cell-based, NIH3T3, dose retest, confirmation (AID 2382); type: functional;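 also: NIH3T3 fibroblasts with HSF1-driven luciferase reporter stressed by proteasome inhibitor MG132; luminescence from HSF1-driven luciferase expression after 8 hours of MG132 stress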
# T1 sequence (P38532 whole entry): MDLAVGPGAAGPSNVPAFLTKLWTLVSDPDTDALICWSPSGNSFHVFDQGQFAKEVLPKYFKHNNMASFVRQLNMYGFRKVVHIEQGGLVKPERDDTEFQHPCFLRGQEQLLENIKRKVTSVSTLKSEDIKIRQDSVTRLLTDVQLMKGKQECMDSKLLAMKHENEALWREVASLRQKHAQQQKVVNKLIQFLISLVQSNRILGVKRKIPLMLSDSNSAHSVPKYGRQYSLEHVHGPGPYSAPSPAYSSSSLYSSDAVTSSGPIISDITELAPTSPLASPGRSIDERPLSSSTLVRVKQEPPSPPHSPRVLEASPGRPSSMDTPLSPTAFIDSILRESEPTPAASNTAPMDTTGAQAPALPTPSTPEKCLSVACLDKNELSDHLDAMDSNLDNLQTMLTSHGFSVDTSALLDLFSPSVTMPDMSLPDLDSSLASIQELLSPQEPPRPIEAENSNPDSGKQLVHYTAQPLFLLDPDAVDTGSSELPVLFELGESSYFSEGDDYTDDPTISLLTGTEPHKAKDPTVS
# [2] = fluconazole-exposed Candida albicans growth modulators – fluorescence, retest, confirmation (AID 2467); type: functional, cell-based
# [3] = NIH-3T3 fibroblast cytotoxicity, dose response, cytotoxicity control, cell-based, fluorescence, Alamar Blue, secondary assay (AID 2327); type: functional;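 also: NIH-3T3 mouse fibroblasts cultured with fluconazole at 8 µg/mL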
# [4] = Luminescence Cell-Based Dose Confirmation HTS to Identify Activators of 5'UTR Stem-Loop Driven Alpha-Synuclein mRNA Translation in H4 Neuroglioblastoma Cells. [Related pubchem assays: 1829 (Project Summary), 1814 (Primary HTS)]; type: functional
# H4 = test: Luminescence Cell-Based Dose Response HTS to Identify Activators of 5'UTR Stem-Loop Driven Prion Protein mRNA Translation in H4 Neuroglioblastoma Cells. [Related pubchem assays: 1829 (Project Summary), 1814 (Primary HTS)]; type: functional; settings: Homo sapiens
# [5] = Luminescence Cell-Based Dose Response HTS to Identify Activators of Luciferase Translation or Activity in H4 […] Cells. [Related pubchem assays: 1829 (Project Summary), 1814 (Primary HTS)]; type: functional
# [6] = molecular target: T1, Heat shock factor protein 1; test: enhancement of HSF1-driven luciferase signal – cell-based, NIH3T3, luminescence, dose retest, confirmation (AID 435004); type: functional;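 also: stress induced by proteasome inhibitor MG132 added 30 min after compound; luciferase reporter driven by HSF1 response element in NIH3T3 cells; actives raise luminescence as potentiators of the MG132 stress response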
# [7] = NIH3T3 cell viability loss – ATP luminescence, mouse fibroblasts, counter-screen, dose response (AID 2010); type: functional, cell-based; settings: NIH3T3;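 also: cells exposed to compound for about 90 hours before reading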
# [8] = Trypanosoma cruzi growth suppression in host cells – NIH3T3 host cells, beta-gal luminescence, confirmation (AID 2044); type: functional, cell-based;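 also: intracellular parasites grown in NIH/3T3 mouse fibroblasts as host cells; luminescent beta-galactosidase reporter signal from transgenic T. cruzi replicating inside host cells; inhibitors lower the luminescence signal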
# INS1 = test: INS-1E survival protection against cytokine death – cell-based, luminescence, retest, dose response (AID 449756); type: functional; settings: Rattus norvegicus;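 also: cell death triggered by IL-1 beta plus TNF-alpha plus IFN-gamma mixture; protective hits raise ATP signal compared with cytokine alone wells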
# [9] = luciferase reporter signal suppression in cells – H4 neuroglioma cells, luminescence, dose response (AID 1990); type: functional, cell-based
# [10] = Luminescence Cell-Based Dose Response HTS to Identify Inhibitors of 5'UTR Stem-Loop Driven Prion Protein mRNA Translation in H4 Neuroglioblastoma Cells. [Related pubchem assays: 1827 (Project Summary), 1813 (Primary HTS)]; type: functional
# [11] = viability of uninfected HEp-2 cells – cell-based, HTS, cytotoxicity control for RSV inhibitor project, dose response (AID 2410); type: functional; settings: human respiratory syncytial virus
# [12] = alpha-synuclein stem-loop luciferase translation blockers – H4 neuroglioma cells, luminescence, confirmation (AID 1988); type: functional, cell-based
# [13] = Luminescence Cell-Based Dose Retest to Confirm Inhibitors of Cancer Stem Cells. [Related pubchem assays (depositor defined):AID2717, AID2721]; type: functional, Homo sapiens; settings: Homo sapiens
# [14] = molecular target: FAD-linked sulfhydryl oxidase ALR (Homo sapiens, UniProt P55789); test: ALR-catalysed DTT oxidation blockers – biochemical, H2O2 detection, luminescence, cherry-pick, dose response (AID 493248)
# Sequence of FAD-linked sulfhydryl oxidase ALR (P55789 whole entry): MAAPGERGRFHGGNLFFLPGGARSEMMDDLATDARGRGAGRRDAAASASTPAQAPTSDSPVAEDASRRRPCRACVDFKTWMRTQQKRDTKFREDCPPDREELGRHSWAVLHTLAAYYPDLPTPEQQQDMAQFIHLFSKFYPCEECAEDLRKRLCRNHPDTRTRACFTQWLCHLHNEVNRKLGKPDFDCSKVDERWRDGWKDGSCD
compound,measurement,setting,value
CCOC(=O)c1cc(CC)sc1NC=C1C(=O)CCCC1=O,EC50,[1],> 195 µM (not active)
COC(CN(C)C(=O)c1ccc2c(c1)NC(=O)c1ccccc1S2)OC,EC50,[2],> 38 µM (not active)
same,EC50,[3],> 150 µM (inconclusive)
O=c1c2c3c(sc2nc(NCCOCCO)n1Cc1ccco1)CCCCC3,EC50,[1],> 195 µM (not active)
Cc1ccccc1N(CC(=O)NC1CCCC1)C(=O)c1csnn1,EC50,[4],> 120 µM (not active)
same,EC50,H4,> 120 µM (not active)
same,EC50,[5],> 120 µM (not active)
COc1ccc(OC)c(-c2csc(NC(=O)C3=NN(c4ccccc4)C(=O)CC3)n2)c1,EC50,[4],> 120 µM (not active)
same,EC50,H4,> 120 µM (not active)
same,EC50,[5],> 120 µM (not active)
[O-][n+]1onc2c1CCc1nnccc1-2,EC50,[4],11.4 µM (active)
same,EC50,H4,> 120 µM (not active)
same,EC50,[5],8.72 µM (active)
Cc1ccccc1Nc1ncccc1C(=O)N1CCOCC1,EC50,[2],> 38 µM (not active)
same,EC50,[3],> 160 µM (inactive)
CCN1CC(CN(C)Cc2nc(COc3ccccc3)no2)CC1=O (stereo unspecified),EC50,[6],> 260 µM (inactive)
O=C(N1CCOCC1)C12CCC3CC(CC(C3)C1)C2,EC50,[1],> 195 µM (not active)
Cc1ccc2c(c1)S/C(=C/c1ccc[n+](CCO)c1)N2C,EC50,[7],> 60 µM (not active)
same,EC50,[8],0.832 µM (active)
same,AC50,INS1,2.98 µM (active)
O=C(Nc1ccc(S(=O)(=O)N2CCCCC2)cc1)C1CCN(C(=O)c2ccco2)CC1,EC50,[6],> 260 µM (inactive)
Cc1cc2oc(C(=O)Nc3c(C)n(C)n(-c4ccccc4)c3=O)c(C)c2cc1C,EC50,[4],46.1 µM (active)
same,EC50,H4,> 120 µM (not active)
same,EC50,[5],> 120 µM (not active)
N#Cc1cccn1-c1nccs1,EC50,[1],> 195 µM (not active)
CCc1ccccc1NS(=O)(=O)c1cc2c3c(c1)CCN3C(=O)CC2,EC50,[6],> 260 µM (inactive)
c1ccc(-c2nnsc2Sc2ccccn2)cc1,EC50,[4],18.3 µM (active)
same,EC50,H4,16.3 µM (active)
same,EC50,[5],11.7 µM (active)
COc1cccc(NC(=O)Nc2nnc(Cc3ccccc3F)s2)c1,EC50,[1],> 195 µM (not active)
N#Cc1c(NC(=O)CSc2nnc(-c3ccccc3)o2)sc2c1CCCC2,EC50,[6],> 260 µM (inactive)
CN1/C(=C\P(=O)(N(C)C)N(C)C)C(C)(C)c2ccccc21,EC50,[7],> 60 µM (not active)
same,EC50,[8],2.96 µM (active)
same,AC50,INS1,4.32 µM (active)
CCN(CC)c1ccc(/C=N/NC(=O)Cc2cccs2)c(O)c1,AC50,INS1,0.916 µM (active)
CCN(CC)CCN1C(=O)C(O)=C(C(=O)c2ccc(OC(C)C)cc2)C1c1cccs1 (stereo unspecified),EC50,[4],15.7 µM (active)
same,EC50,H4,35 µM (active)
same,EC50,[5],20.1 µM (active)
CCOC(=O)c1c(NC(=O)c2ccccc2)sc2c(O)c(CN(CC)CC)ccc12,EC50,[1],> 195 µM (not active)
CCCNC(=O)Nc1ccc(C)cc1C,EC50,[6],> 260 µM (inactive)
CCCC(NC(=O)COc1cc2c(c3oc(=O)cc(C)c13)CCC(C)(C)O2)C(=O)O (stereo unspecified),EC50,[1],> 195 µM (not active)
CC(=O)/C(=N/Nc1ccc(Br)cc1)N1CCCc2ccccc21,EC50,[9],> 120 µM (not active)
same,EC50,[6],113 µM (active)
same,EC50,[10],> 120 µM (not active)
same,CC50,[11],12.8 µM (active)
same,EC50,[12],14.5 µM (active)
O=C(Nc1cnn(C23CC4CC(CC(C4)C2)C3)c1)c1cc(-c2ccccc2)on1,AC50,[13],0.296 µM (active)
same,EC50,[7],> 60 µM (not active)
same,EC50,[8],1.55 µM (active)
CCCCOc1ccc(S(=O)(=O)N2CCN(c3ccc(N4CCN(CC)CC4)nn3)CC2)cc1,AC50,[13],< 0.16 µM (active)
CCOc1ccc(S(=O)(=O)N2CCN=C2c2ccccc2)cc1,AC50,[13],3.19 µM (active)
COc1ccccc1-c1nnc(S)n1Cc1ccccc1,AC50,[14],3.09 µM (active)
CCCCn1c(N(CCOC(C)=O)C(C)=O)nc2ccccc21,EC50,[1],> 195 µM (not active)
Fc1ccc(N/N=C/c2cccnc2)c(F)c1,EC50,[2],> 38 µM (not active)
same,EC50,[3],16.3 µM (inconclusive)
CCN(CC(=O)Nc1cccc(OC)c1)CC(=O)Nc1ccc(Br)c(C)c1,EC50,[6],61.1 µM (active)
Cc1cc(Nc2cccc(Cl)c2)nc(-c2ccccc2O)n1,EC50,[1],> 195 µM (not active)
COc1ccc(N2CCN(CC(=O)Nc3ccc(C)cc3)CC2)cc1,AC50,[14],3 µM (active)
COc1cc(NC(=O)Nc2cccc(C(C)=O)c2)cc(OC)c1OC,AC50,[14],1.72 µM (active)
COc1ccc(SCC2CN(C)CCC2c2ccc(F)cc2)cc1 (stereo unspecified),EC50,[6],> 260 µM (inactive)
O=C(O)c1ccc(N/N=C/c2cn(-c3ccccc3)nc2-c2cccs2)cc1,AC50,[14],3.74 µM (active)
COc1ccc(C2C=C(C)Nc3ncnn32)cc1 (stereo unspecified),EC50,[4],19.2 µM (active)
same,EC50,H4,> 120 µM (not active)
same,EC50,[5],50.5 µM (active)
CCOC(=O)C1CCN(C(=O)CCS(=O)(=O)c2ccc3c(c2)CC(C)N3C(=O)CC)CC1 (stereo unspecified),EC50,[1],> 195 µM (not active)
COc1cc(OC)c2ccc(=O)oc2c1C(CCN1CCCC1)c1ccc(N(C)C)cc1 (stereo unspecified),AC50,[14],3.33 µM (active)
COc1ccc(Nc2cccc(Cl)c2)c(C(=O)O)c1,AC50,[14],2.02 µM (active)
same,CC50,[11],25.3 µM (active)
COc1ccc(C)cc1-n1c(SCC(=O)Nc2cccc(C(=O)O)c2)nc2ccccc2c1=O,EC50,[6],> 260 µM (inactive)
Oc1cccc(Nc2ncnc3c2oc2ccccc23)c1,EC50,[2],3.71 µM (active)
same,EC50,[3],> 160 µM (inactive)
COc1ccc(OC)c(CNc2ccc3c(c2)nc(C)n3C)c1,AC50,[14],5.53 µM (active)
CSc1nccn1C(=O)c1ccccc1[N+](=O)[O-],EC50,[1],> 195 µM (not active)
O=C(Nc1ccccc1)OCCOc1ccccc1,EC50,[1],> 195 µM (not active)
same,EC50,H4,93.6 µM (active)
same,EC50,[5],30.2 µM (active)
O=C(Cn1cnc2c(cnn2-c2ccccc2)c1=O)NCc1ccccc1,EC50,[4],8.08 µM (active)
same,EC50,H4,89.8 µM (active)
same,EC50,[5],9.72 µM (active)
N#Cc1cc(Cl)c(NCC2CCCO2)cc1C#N (stereo unspecified),EC50,[6],> 260 µM (inactive)
same,CC50,[11],20.9 µM (active)
CCOc1cc(/C=N/NC(=O)c2cccnc2)ccc1OCC(N)=O,EC50,[2],> 38 µM (not active)
same,EC50,[3],> 150 µM (inactive)
CCn1cc(C(=O)c2ccccc2)c2ccccc21,EC50,[2],3.63 µM (active)
same,EC50,[3],> 160 µM (inactive)
O=C(CCCc1ccccc1)Nc1ccc2c(c1)OCCO2,EC50,[6],32.2 µM (active)
Cc1cc(Oc2ccccc2)nc(-c2ccccc2O)n1,EC50,[2],> 38 µM (not active)
same,EC50,[3],> 150 µM (inconclusive)
Nc1ccc(CCc2nc3ccccc3o2)cc1,AC50,[14],1.16 µM (active)
COc1ccccc1Nc1ccc2nonc2c1[N+](=O)[O-],EC50,[1],> 195 µM (not active)
Cc1ccc(C(=O)CSc2cnc3ccccc3n2)cc1C,EC50,[1],4.3 µM (active)
CCn1c2ccccc2c2cc(NC(=O)C(C)C)ccc21,EC50,[2],> 38 µM (not active)
same,EC50,[3],63.3 µM (active)
CCCCN(CCCNc1[nH]cnc2ncnc1-2)c1ccccc1,AC50,[14],0.108 µM (active)
COc1cc2c(cc1OC)CN(c1ccc([N+](=O)[O-])cc1C#N)CC2,AC50,[14],> 100 µM (inactive)
Cc1ccccc1Nc1nnc(C)c(O)n1,EC50,[6],> 260 µM (inactive)
Cn1c(-c2ccsc2)c(-c2cccs2)c2cc(-c3ccc4[nH]ccc4c3)ccc21,AC50,[13],9.76 µM (active)
COc1ccc(CSC2=NCCN2)cc1Cl,AC50,[14],0.021 µM (active)
CCN(CC)S(=O)(=O)c1cccc(C(=O)OCC(=O)N2CC(=O)Nc3ccccc32)c1,EC50,[6],> 260 µM (inactive)
CC(OC(=O)CN1C(=O)c2ccccc2C1=O)C(=O)NC1CCCCC1C (stereo unspecified),EC50,[1],> 195 µM (not active)
Sc1nnc(Cc2noc3ccccc23)n1-c1ccccc1,AC50,[14],5.61 µM (active)
